Experimental data from the supplement of paper PMC10307832.

Experiments:
Assay in all cases: relative viability (nuclei count vs DMSO), 5 days (fraction); higher = more cells survive
AZD5582 + Pemetrexed = compound: C[C@@H](C(=O)N[C@@H](C1CCCCC1)C(=O)N2CCC[C@H]2C(=O)N[C@@H]3[C@@H](CC4=CC=CC=C34)OCC#CC#CCO[C@@H]5CC6=CC=CC=C6[C@@H]5NC(=O)[C@@H]7CCCN7C(=O)[C@H](C8CCCCC8)NC(=O)[C@H](C)NC)NC [AZD5582] + Nc1nc2[nH]cc(CCc3ccc(C(=O)N[C@@H](CCC(=O)O)C(=O)O)cc3)c2c(=O)[nH]1 [Pemetrexed] (partner 0.2 µM)
Summary of the method: (§1)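 After 5 days of treatment, lung cancer cells in 1536-well plates were fixed and stained in a single step (final 0.05% Triton X-100, 1% formaldehyde, 1 ug/ml Hoechst) and their nuclei counted on 4× images. Treatment had been applied by pin tool the day after seeding as one drug alone or as a fixed anchor-drug dose with five library-drug doses (not always all listed) in √10 steps. Relative viability is the nuclei count of treated wells divided by that of vehicle wells, and values are medians of duplicate plates.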

Temozolomide + OSI-027 = compound: Cn1nnc2c(C(N)=O)ncn2c1=O [Temozolomide] + COc1cccc2cc(-c3nc([C@H]4CC[C@H](C(=O)O)CC4)n4ncnc(N)c34)[nH]c12 [OSI-027] (partner 0.5 µM)
Summary of the method: as §1

AZD5582 + Luminespib = compound: C[C@@H](C(=O)N[C@@H](C1CCCCC1)C(=O)N2CCC[C@H]2C(=O)N[C@@H]3[C@@H](CC4=CC=CC=C34)OCC#CC#CCO[C@@H]5CC6=CC=CC=C6[C@@H]5NC(=O)[C@@H]7CCCN7C(=O)[C@H](C8CCCCC8)NC(=O)[C@H](C)NC)NC [AZD5582] + CCNC(=O)c1noc(-c2cc(C(C)C)c(O)cc2O)c1-c1ccc(CN2CCOCC2)cc1 [Luminespib] (partner 0.01 µM)
Summary of the method: as §1

AZD5582 + Crizotinib = compound: C[C@@H](C(=O)N[C@@H](C1CCCCC1)C(=O)N2CCC[C@H]2C(=O)N[C@@H]3[C@@H](CC4=CC=CC=C34)OCC#CC#CCO[C@@H]5CC6=CC=CC=C6[C@@H]5NC(=O)[C@@H]7CCCN7C(=O)[C@H](C8CCCCC8)NC(=O)[C@H](C)NC)NC [AZD5582] + C[C@@H](Oc1cc(-c2cnn(C3CCNCC3)c2)cnc1N)c1c(Cl)ccc(F)c1Cl [Crizotinib] (partner 1 µM)
Summary of the method: as §1

Cell Line | relative viability (AZD5582 + Pemetrexed; first compound 0.001581 µM) | relative viability (AZD5582 + Pemetrexed; first compound 0.005 µM) | relative viability (AZD5582 + Pemetrexed; first compound 0.01581 µM) | relative viability (AZD5582 + Pemetrexed; first compound 0.05 µM) | relative viability (Temozolomide + OSI-027; first compound 0.2 µM) | relative viability (Temozolomide + OSI-027; first compound 0.6325 µM) | relative viability (Temozolomide + OSI-027; first compound 2 µM) | relative viability (Temozolomide + OSI-027; first compound 6.325 µM) | relative viability (Temozolomide + OSI-027; first compound 20 µM) | relative viability (AZD5582 + Luminespib; first compound 0.001581 µM) | relative viability (AZD5582 + Luminespib; first compound 0.005 µM) | relative viability (AZD5582 + Luminespib; first compound 0.01581 µM) | relative viability (AZD5582 + Luminespib; first compound 0.05 µM) | relative viability (AZD5582 + Crizotinib; first compound 0.001581 µM) | relative viability (AZD5582 + Crizotinib; first compound 0.005 µM) | relative viability (AZD5582 + Crizotinib; first compound 0.01581 µM) | relative viability (AZD5582 + Crizotinib; first compound 0.05 µM)
NCI-H358 | 0.178 | 0.171 | 0.179 | 0.17 | 0.437 | 0.795 | 0.697 | 0.689 | 0.583 | 0.225 | 0.279 | 0.357 | 0.417 | 0.505 | 0.676 | 0.704 | 0.455
HCC-827 | 0.272 | 0.273 | 0.283 | 0.205 | 0.45 | 0.756 | 0.8 | 0.73 | 0.133 | 0.61 | 0.755 | 0.664 | 0.743 | 0.885 | 1.02 | 0.926 | 0.898
NCI-H1355 | 0.942 | 1 | 0.986 | 0.815 | 0.349 | 0.421 | 0.455 | 0.382 | 0.352 | 0.599 | 0.674 | 0.606 | 0.923 | 1.02 | 0.857 | 0.982 | 1.05
NCI-H1793 | 0.787 | 1.21 | 0.624 | 1.07 |  | 0.279 | 0.27 | 0.245 | 0.232 | 0.23 | 0.282 | 0.239 | 0.18 |  |  |  | 
CAL-12T | 0.792 | 0.811 | 1.11 | 0.967 | 0.728 | 0.712 | 0.914 | 0.608 | 0.657 | 0.192 | 0.298 | 0.401 | 0.326 |  | 0.175 | 0.531 | 0.192
NCI-H1993 | 0.495 | 0.527 | 0.561 | 0.679 | 0.522 | 0.556 | 0.536 | 0.535 | 0.621 | 0.848 | 1.02 | 0.888 | 0.946 | 0.824 | 0.826 | 0.819 | 0.915
EKVX | 0.382 | 0.39 | 0.344 | 0.375 | 0.513 | 0.669 | 0.555 | 0.686 | 0.591 | 0.859 | 0.972 | 0.787 | 0.803 | 0.713 | 0.9 | 0.753 | 0.96
NCI-H1755 | 0.399 | 0.375 | 0.387 | 0.414 | 0.76 | 0.758 | 0.743 | 0.673 | 0.637 | 0.259 | 0.49 | 0.329 | 0.437 | 0.793 | 0.846 | 0.86 | 0.916
NCI-H2228 | 0.281 | 0.285 | 0.305 | 0.21 | 0.557 | 0.56 | 0.602 | 0.583 | 0.727 | 0.136 | 0.205 | 0.144 | 0.15 | 0.623 | 0.521 | 0.702 | 0.479
NCI-H460 | 0.0644 | 0.0659 | 0.0592 | 0.059 | 0.853 | 0.688 | 0.761 | 0.682 | 0.656 | 0.0278 | 0.039 | 0.0382 | 0.0351 | 0.801 | 0.998 | 0.704 | 0.94
HCC-44 | 0.587 | 0.615 | 0.614 | 0.402 | 0.682 | 0.425 | 0.477 | 0.494 | 0.477 | 0.921 | 1.12 | 0.96 | 1.2 | 0.5 | 0.457 | 0.793 | 0.378
BEN | 0.663 | 0.723 | 0.925 | 0.759 | 0.326 | 0.289 | 0.296 | 0.283 | 0.306 | 0.332 | 0.325 | 0.634 | 0.392 | 0.658 | 0.784 | 0.979 | 0.848
H3255 | 0.492 | 0.563 | 0.512 | 0.573 |  | 0.656 | 0.606 | 0.569 | 0.208 | 0.731 | 0.956 | 0.653 | 0.824 | 0.825 | 0.712 | 0.743 | 0.756
NCI-H1650 | 0.385 | 0.396 | 0.362 | 0.412 | 0.638 | 0.788 | 0.651 | 0.596 | 0.409 | 0.2 | 0.21 | 0.189 | 0.211 | 0.904 | 0.964 | 0.88 | 0.736
A-427 | 0.931 | 0.92 | 0.978 | 0.89 | 0.481 | 0.4 | 0.507 | 0.365 | 0.299 | 0.665 | 0.845 | 0.906 | 0.897 | 0.623 | 0.751 | 0.97 | 0.618
NCI-H1651 | 0.507 | 0.562 | 0.52 | 0.638 | 0.724 | 0.727 | 0.657 | 0.636 | 0.636 | 0.859 | 0.904 |  | 0.96 | 0.85 | 0.91 | 0.854 | 0.939
EPLC-272H |  |  | 0.346 | 0.104 | 0.257 | 0.279 | 0.295 | 0.291 | 0.216 | 0.24 |  | 0.205 | 0.381 | 0.187 | 0.131 | 0.746 | 0.0674
NCI-H2009 | 1 | 1.01 | 1.03 | 1.08 | 0.82 | 0.597 | 0.682 | 0.699 | 0.698 | 0.959 | 0.987 | 1.02 | 1.09 | 1.01 | 1.03 | 0.993 | 1.02
